For data set [1], the system named is B16. As to the kind of experiment: Inhibition of alpha-MSH-stimulated melanogenesis in mouse B16 cells assessed as reduction in melanin formation. The data set is classed as functional, cell-based.
Data set [2] can be described thus: Cytotoxicity in mouse B16 cells assessed as cell viability at 20 uM by MTT assay. The data set is classed as cell-based. Conditions: read-out: Activity. A general note: Formazan colour is commonly taken as a measure of viable cells.
A short description of data set [3]: Cytotoxicity in mouse B16 cells assessed as cell viability at 10 uM by MTT assay. The class given is cell-based. Conditions: read-out: Activity.
The nature of data set [4]: Cytotoxicity in mouse B16 cells assessed as cell viability at 5 uM by MTT assay. Conditions: read-out: Activity. The data set is classed as cell-based.
The nature of data set [5]: Cytotoxicity in mouse B16 cells assessed as cell viability at 40 uM by MTT assay. The data set is classed as cell-based. Conditions: read-out: Activity.
Data set [6] is described as follows: Cytotoxicity in mouse B16 cells assessed as cell viability at 2.5 uM by MTT assay. The class given is cell-based. Conditions: read-out: Activity.

A value given as a limit tells only on which side of the number the result lay.

`CC(C)(C)OC(=O)N1CCN(C(=O)/C=C/c2ccc(O)c(O)c2)CC1`: in data set [1], the 50% inhibitory concentration (IC50) – broadly, the concentration needed to halve the response being measured – came out at 5.8 µM. In addition, the viability at 20 µM in data set [2] is 31%.

With `Cc1cccc(CNC(=O)/C=C/c2ccc(O)c(O)c2)c1`, in data set [1], the IC50 was 3 µM. Also, in data set [3], the viability at 10 µM stood at 20%. Besides, the viability at 20 µM in data set [2] was 45%.

On to `O=C(/C=C/c1ccc(O)c(O)c1)N1CCNCC1`, for which the half-maximal inhibitory concentration (IC50) in data set [1] is more than 40 µM. Also, in data set [2], the viability at 20 µM was found to be 31%.

Turning to `O=C(/C=C/c1ccc(O)c(O)c1)Nc1ccc([N+](=O)[O-])cc1`, the concentration for half-maximal inhibition (IC50) in data set [1] worked out at 1.4 µM. For the same molecule, in data set [3], the viability at 10 µM lay within 51 to 62%. The viability at 5 µM in data set [4] lay in the range of 30 to 35%.

For `O=C(/C=C/c1ccc(O)c(O)c1)NCc1ccccc1Cl`, the half-maximal inhibitory concentration (IC50) in data set [1] is 6.5 µM. Moreover, the viability at 40 µM in data set [5] stood at 0%.

Take `OC[C@H]1O[C@@H](Oc2ccc(O)cc2)[C@H](O)[C@@H](O)[C@@H]1O` [ARBUTIN]: the IC50 in data set [1] was 400 µM.

In the case of `O=c1cc(CO)occ1O` [KOJIC ACID], in data set [1], the half-maximal inhibitory concentration (IC50) came to 57 µM.

For the molecule `CC(C)c1ccc(NC(=O)/C=C/c2ccc(O)c(O)c2)cc1`, in data set [1], the IC50 was found to be 3.4 µM. The viability at 10 µM in data set [3] was determined as 82%. Also, the viability at 5 µM in data set [4] stood at 15%.

Take `O=C(/C=C/c1ccc(O)c(O)c1)Nc1cccc([N+](=O)[O-])c1`: the half-maximal inhibitory concentration (IC50) in data set [1] amounted to 1.9 µM. Also, in data set [3], the viability at 10 µM is 48%. In addition, the viability at 5 µM in data set [4] lay within 24 to 35%.

`O=C(/C=C/c1ccc(O)c(O)c1)NCc1cccc(Cl)c1`: in data set [1], the half-maximal inhibitory concentration (IC50) amounted to 6 µM. Moreover, the viability at 10 µM in data set [3] came out at 22%. Further, the viability at 20 µM in data set [2] is 59 to 62%.

For `O=C(/C=C/c1ccc(O)c(O)c1)NCc1ccccc1C(F)(F)F`, in data set [1], the IC50 was determined as 1.8 µM. Besides, the viability at 10 µM in data set [3] is 33 to 49%. In addition, the viability at 5 µM in data set [4] was 22 to 28%.

With `O=C(/C=C/c1ccc(O)c(O)c1)NCc1cccc(C(F)(F)F)c1`, in data set [1], the half-maximal inhibitory concentration (IC50) amounted to 1.4 µM. The viability at 10 µM in data set [3] fell in the range of 29 to 47%. Further, in data set [4], the viability at 5 µM came to 24%.

`Cc1ccccc1CNC(=O)/C=C/c1ccc(O)c(O)c1`: the IC50 in data set [1] is 20 µM. For the same molecule, the viability at 10 µM in data set [3] was 25%. In data set [2], the viability at 20 µM fell in the range of 33 to 49%.

Take `O=C(/C=C/c1ccc(O)c(O)c1)OC1CCCCC1`: in data set [1], the 50% inhibitory concentration (IC50) came out at 7 µM. Further, the viability at 10 µM in data set [3] was 30%.

Consider `O=C(/C=C/c1ccc(O)c(O)c1)Nc1ccccc1`, for which the half-maximal inhibitory concentration (IC50) in data set [1] is 7.6 µM. Moreover, the viability at 10 µM in data set [3] was found to be 21%.

As to `CC(=O)Oc1ccc(/C=C/C(=O)OC2CCCCC2)cc1OC(C)=O`, the IC50 in data set [1] is 0.2 µM. Moreover, the viability at 2.5 µM in data set [6] is 24%.

In the case of `O=C(/C=C/c1ccc(O)c(O)c1)NC1CCCC1`, in data set [1], the IC50 turned out to be 30 µM. Also, in data set [5], the viability at 40 µM stood at 0%.

On to `O=C(/C=C/c1ccc(O)c(O)c1)NC1CCCCC1`, for which the IC50 in data set [1] came to 2.8 µM. Further, the viability at 10 µM in data set [3] was 23%.

Consider `O=C(/C=C/c1ccc(O)c(O)c1)Nc1cccc(C(F)(F)F)c1`, for which the IC50 in data set [1] was determined as 1.4 µM. Moreover, the viability at 2.5 µM in data set [6] is 22 to 36%. The viability at 5 µM in data set [4] fell in the range of 60 to 82%.

As for `O=C(/C=C/c1ccc(O)c(O)c1)NCc1ccc(Cl)cc1`, the IC50 in data set [1] turned out to be 1.8 µM. In addition, in data set [3], the viability at 10 µM lay within 39 to 53%. Also, the viability at 5 µM in data set [4] came out at 23%.

As to `O=C(/C=C/c1ccc(O)c(O)c1)N1CCCCC1`, the half-inhibitory concentration (IC50) in data set [1] amounted to 24 µM. The viability at 40 µM in data set [5] came to 0%.

Turning to `NS(=O)(=O)c1ccc(CNC(=O)/C=C/c2ccc(O)c(O)c2)cc1`, in data set [1], the 50% inhibitory concentration (IC50) was more than 40 µM. Moreover, the viability at 40 µM in data set [5] worked out at 0%.

`O=C(/C=C/c1ccc(O)c(O)c1)Nc1ccc(C(F)(F)F)cc1`: the half-maximal inhibitory concentration (IC50) in data set [1] amounted to 1.4 µM. For the same molecule, the viability at 10 µM in data set [3] lay in the range of 77 to 90%. The viability at 5 µM in data set [4] lay within 56 to 58%.

Consider `COc1ccccc1CNC(=O)/C=C/c1ccc(O)c(O)c1`, for which the IC50 in data set [1] came out at 7 µM. Also, the viability at 40 µM in data set [5] lay in the range of 35 to 46%. Further, the viability at 20 µM in data set [2] came to 20%.

`O=C(/C=C/c1ccc(O)c(O)c1)NCc1ccc(C(F)(F)F)cc1`: the IC50 in data set [1] was 1.6 µM. Moreover, the viability at 10 µM in data set [3] was in the range of 39 to 48%. Moreover, in data set [4], the viability at 5 µM is 26%.

On to `COC(=O)[C@]1(O)C[C@@H](O)[C@@H](O)[C@H](OC(=O)/C=C/c2ccc(O)c(O)c2)C1` [CHLOROGENIC ACID METHYL ESTER], for which the IC50 in data set [1] is more than 40 µM.

With `O=C(CCc1ccc(O)c(O)c1)O[C@@H]1C[C@](O)(C(=O)O)C[C@@H](O)[C@H]1O`, the 50% inhibitory concentration (IC50) in data set [1] was more than 40 µM.

`CCCCc1ccc(NC(=O)/C=C/c2ccc(O)c(O)c2)cc1`: the IC50 in data set [1] was 1.2 µM. The viability at 2.5 µM in data set [6] was in the range of 33 to 49%. For the same molecule, in data set [4], the viability at 5 µM fell in the range of 68 to 96%.

For `Cc1n[nH]c(NC(=O)/C=C/c2ccc(O)c(O)c2)c1-c1ccc(Br)cc1`, in data set [1], the IC50 amounted to 1 µM. For the same molecule, the viability at 2.5 µM in data set [6] is 29 to 56%. Besides, the viability at 5 µM in data set [4] was 68 to 93%.

As to `O=C(/C=C/c1ccc(O)c(O)c1)NCc1ccccc1`, in data set [1], the IC50 was 8 µM. The viability at 10 µM in data set [3] was 23%.

For `COc1ccc(CNC(=O)/C=C/c2ccc(O)c(O)c2)cc1`, in data set [1], the IC50 was determined as 6.2 µM. Also, the viability at 40 µM in data set [5] was 37 to 54%. In addition, the viability at 20 µM in data set [2] was 20%.

On to `Cc1ccc(CNC(=O)/C=C/c2ccc(O)c(O)c2)cc1`, for which, in data set [1], the IC50 was 3.7 µM. Also, the viability at 10 µM in data set [3] came to 20%. In addition, the viability at 20 µM in data set [2] fell in the range of 22 to 30%.

Values taken from ChEMBL document CHEMBL4033751, “Synthesis and biological evaluation of caffeic acid derivatives as potent inhibitors of α-MSH-stimulated melanogenesis” (Bioorg Med Chem Lett, 2017).
